Data taken from patent US20090117199A1, “Method of treatment of cancer” (priority 1998, published 2009).
“Also recorded” adds a separate entry of the source.

Key:
[1] = Local tolerance, single subcutaneous injection into normal tissue
Experimental: The local tolerance study was conducted using female Crl:SKH-1-hrBR hairless mice (Charles river), at least 6 weeks of age and 19-27 g at study Day 1.
All dosing was performed on Study Day 1. Follow-up examination of mice was conducted at regular intervals and the test terminated on either day 4 (3 animal from each group) or Day 15 (the remaining three animals).
Clinical observations were recorded daily (including dermal scoring using the Draize scoring system). Upon sacrifice, animals were subjected to a comprehensive necroscopy. Tissue samples from the injection site (and surrounding tissue) were obtained and examined histologically.

[2] = Kp of RB with and without phosphate buffer; type: physicochemical
From the text: This may be compared to 66.7 in the absence of phosphate buffer, in which case the pH would have been between about 6 to about 6.5.

T-47D [ER−] tumors = experiment: Tumor response to IL 10% RB in saline, report 020110.01B; type: in vivo, BALB/c Nude Mice; details: 10% RB IL 25-50 μL/tumor Qd × 1; long passage T-47D [ER−]; 4/group
[3] = Biodistribution (pharmacokinetic and toxicokinetic) after single IL injection in A375 tumor; type: in vivo, nu/nu mice; details: single IL injection of 1% or 6% RB
Experimental: Growth control and sham treatment groups received no injection. All dosing was performed on Study Day 1.
Pharmacokinetic and toxicokinetic data from RB-treated tumors illustrates that a single IL injection of RB leads to localized retention of drug tumor tissue. This is illustrated in FIGS. 4 and 5, which show concentration of RB in tumor tissue, peritumor tissue and blood for time points ranging from 0.5 hr to 360 hr (15 days) post injection.

[4] = system: spontaneous breast tumors; experiment: Tumor response to IL 10% RB in saline, report 020626.01C; type: in vivo, Neu+/+ x (1988A2Kb x Neu+/+) mice; details: 10% RB IL 50 μL/tumor Qd × 1
[5] = system: PC-3 human prostate tumors; experiment: Tumor response to IL 10% RB in saline, report 051017.02B; type: in vivo, Nu/nu Nude Mice; details: 10% RB 45 μL/tumor Qd × 1; 24 hours post injection and over 29 days of observation
MCF-7 [ER−] tumors = experiment: Tumor response to IL 10% RB in saline, report 020110.01B; type: in vivo, BALB/c Nude Mice; details: 10% RB IL 25-50 μL/tumor Qd × 1; within 21 days; 4/group
[6] = system: H69Ar human resistant SCLC tumors; experiment: Tumor response to IL 10% RB in saline, report 051017.01B; type: in vivo, Nu/nu Nude Mice; details: 10% RB 45 μL/tumor Qd × 1; 24 hours post injection and over 7 days of observation
[7] = cited from earlier work
[8] = Partitioning coefficient of RB, 1-octanol/0.9% saline, effect of pH
Experimental: The partition coefficient of RB was assessed over a range of pH values. The experiments were conducted by titrating RB solutions, measuring pH, then placing aliquots of the solutions into vials containing both organic (1-octanol) and aqueous (0.9% saline) phases. After mixing, the agents were allowed to partition for approximately 1 day. Based on absorption measurements (at the same wavelengths used in Experiment 1), the percentage of agent in each phase, the Kp and LogD (log of Kp) was reported.
Experiment 1 was conducted using a stock solution of 0.42 mg/mL RB, whereas Experiment 3 was conducted using a concentration of 0.08 mg/mL.

Murine Hepa I-6 tumors = experiment: Tumor response to IL 10% RB in saline, report 020111.01B; type: in vivo, BALB/c Nude Mice; details: IL 30-50 μL/tumor Qd × 1; 8/group

## O=C([O-])c1c(Cl)c(Cl)c(Cl)c(Cl)c1-c1c2cc(I)c(=O)c(I)c-2oc2c(I)c([O-])c(I)cc12.[Na+].[Na+] [RB, 4,5,6,7-Tetrachloro-2′,4′,5′,7′-tetraiodofluorescein]
[1]; SC, 2000 mg/kg study group (days 2 and 3), N=6
  fatalities: two fatalities
[1]; SC, 250 and 500 mg/kg
  swelling at the injection site: Swelling was also noted in the injection site for most animals
[1]; SC, 1250-2000 mg/kg
  injection site effect: massive necrosis at the injection site
[1]; SC, <500 mg RB kg body weight, days 4 and 15
  histology of injection site: focal necrosis at the injection site
[1]; SC, dosages up to 250 mg/kg at 1 days post administration
  histological necrosis in normal tissue: no histological evidence of necrosis
[1]; SC, up to 500 mg RB/kg body weight (10%)
  clinical outcome, local tolerance: mild side effects primarily limited to localized discoloration of the injection site; also recorded: only mild clinical effects
[1]; lower dosage groups (below 2000 mg/kg)
  systemic effects: No systemic effects
[1]; one of the two fatalities in Group 6 (2000 mg/kg)
  kidney lesions: mild degeneration of the kidney
[1]; the two fatalities in Group 6 (2000 mg/kg)
  liver lesions: mild to moderate degeneration of the liver
[2]; phosphate buffered saline, pH 7.4
  Kp: 11.5
[2]; solution without phosphate buffer (unbuffered), absence of phosphate buffer, pH between about 6 to about 6.5
  Kp: 66.7
T-47D [ER−] tumors
  tumors ablated: (3/4).
[3]; post-injection
  persistence of markedly elevated RB levels in tumor samples: at least 8 days
[3]; 0.5 hr to 360 hr post injection
  mean levels of RB in blood: ≤ 3 µg/g
[4]
  tumor response: IL RB ablated spontaneous breast
[5]
  tumors fully ablated: IL RB fully ablated 8/8 tumors 24
MCF-7 [ER−] tumors
  tumors completely ablated: [ER+] (4/4), MCF-7 [ER−] (4/4),
[6]
  tumors fully ablated: IL RB fully ablated 5/5 tumors 24
[7]
  half-life of RB in the murine blood stream: approximately 30 min
[8]
  solubility: 195 µg/mL
[8]; below a pH of about 4.4
  partitioning coefficient versus pH: rapidly increases
[8]; below a pH of about 4.4 (lactone form)
  solubility of RB in the aqueous phase: almost complete insolubility
[8]; pH range about 4 to about 10, 1-octanol/0.9% saline
  partitioning coefficient versus pH: consistent
Murine Hepa I-6 tumors
  damage/necrosis to peripheral normal tissue: peripheral normal tissue (0/8)
